Experimental data reported in ChEMBL document CHEMBL5104151, “Synthesis of new pyrazolo[4,3-a]phenanthridine Pim-1 inhibitors and evaluation of their cytotoxic activity towards the MOLM-13 acute myeloid leukemia cell line” (Bioorg Med Chem Lett, 2022).

Tests used:
[1] = tested on: MOLM-13; experiment: Induction of apoptosis in human MOLM-13 cells incubated for 72 hrs and assessed as presence of apoptotic nuclei; type: functional, cell-based; conditions: MOLM-13, 72 h
[2] = Cytotoxicity against rat NRK cells measured after 72 hrs by WST-1 assay; type: toxicity, cell-based
[3] = tested on: MOLM-13; experiment: Antiproliferative activity against human MOLM-13 cells measured after 72 hrs by WST-1 assay; type: functional, cell-based; conditions: MOLM-13, 72 h
[4] = tested on: MOLM-13; experiment: Antiproliferative activity against human MOLM-13 cells measured after 24 hrs by WST-1 assay; type: functional, cell-based; conditions: MOLM-13, 24 h
[5] = biological target: T1, Serine/threonine-protein kinase pim-1 (Homo sapiens, UniProt P11309); experiment: Inhibition of full-length human Pim-1 using RSRHSSYPAG as substrate incubated in presence of [gamma33P]ATP and assessed as residual activity at 1 uM relative to control
Target sequence in this assay (P11309 whole entry, looked up): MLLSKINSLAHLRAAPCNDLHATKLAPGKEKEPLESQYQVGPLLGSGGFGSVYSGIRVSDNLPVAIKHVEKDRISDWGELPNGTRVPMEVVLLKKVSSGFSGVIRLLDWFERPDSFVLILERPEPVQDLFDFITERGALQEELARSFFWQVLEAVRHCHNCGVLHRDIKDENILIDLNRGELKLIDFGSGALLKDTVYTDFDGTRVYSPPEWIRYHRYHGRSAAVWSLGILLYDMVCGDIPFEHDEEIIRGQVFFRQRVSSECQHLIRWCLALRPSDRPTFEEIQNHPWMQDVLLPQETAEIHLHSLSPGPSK

[6] = biological target: T1, Serine/threonine-protein kinase pim-1; experiment: Inhibition of full-length human Pim-1 using RSRHSSYPAG as substrate incubated in presence of [gamma33P]ATP
Target sequence in this assay (P11309 whole entry): as the sequence (P11309 whole entry, looked up) above

[7] = biological target: T1, Serine/threonine-protein kinase pim-1; experiment: Inhibition of full-length human Pim-1 using RSRHSSYPAG as substrate incubated in presence of [gamma33P]ATP and assessed as residual activity at 10 uM relative to control
Target sequence in this assay (P11309 whole entry, looked up): as above

Row | Structure (SMILES) | EC50 [1] [µM] | EC50 at 72 h [2] [µM] | EC50 [3] [µM] | EC50 [4] [µM] | Activity [5] [%] | IC50 [6] [µM] | Activity [7] [%]
1 | O=[N+]([O-])c1cc2[nH]ncc2c2c1ncc1ccccc12 | 3.7 | > 30 | 0.2 | 0.8 |  |  | 
2 | C=Cc1n[nH]c2cc([N+](=O)[O-])c3ncc4ccccc4c3c12 | 4.6 | 24 | 1.7 | 2.9 | 5.3 | 0.031 | 1.5
3 | O=C(O)c1cc2[nH]ncc2c2c1ncc1ccccc12 | > 250 |  | 62 | > 250 | 77 |  | 29
4 | O=[N+]([O-])c1cc2[nH]nc(I)c2c2c1ncc1ccccc12 | 6.6 | 28 | 1.7 | 3.5 | 8.6 | 0.05 | 1.4
5 | COC(=O)c1cc2[nH]ncc2c2c1ncc1ccccc12 | 61 |  | 30 | 50 | 38 |  | 21
6 | FC(F)(F)c1cc2[nH]ncc2c2c1ncc1ccccc12 | > 250 |  | 1.2 |  | 43 |  | 18
7 | NC(=O)c1cc2[nH]ncc2c2c1ncc1ccccc12 | > 250 |  | 2.5 |  | 23 | 0.125 | 7
